EC50 data for eleven compounds are collected here from BindingDB's records for patent US20240002391 (Biosplice Therapeutics, 2024).

In this assay the target is Dual specificity tyrosine-phosphorylation-regulated kinase 1A (Homo sapiens, UniProt Q13627). In words: DYRK1A kinase assay. The protocol:
The mixture was allowed to incubate with the representative compounds for one hour at room temperature. All reactions were performed in duplicate. Unphosphorylated ( 0% Control ) and phosphorylated ( 100% control ) forms of Ser/Thr 18 served as control reactions. Additionally, an 11-point dose-response curve of Staurosporine (luM top) was run to serve as a positive compound control. After incubation, Development Reagent A was diluted in Development Buffer then added to the reaction and allowed to further incubate for one hour at room temperature.

With `COc1nc(N[C@H]2C[C@@](C)(N)C2)nn2ccc(-c3ccc4ncnn4c3)c12` [US20240002391, Compound 189], the midpoint of the response, the EC50, lay at 18.8 nM.
As to `COc1nc(N[C@H]2C[C@]3(CCN3CC(F)F)C2)nn2ccc(-c3ccc4nccnc4c3)c12` [US20240002391, Compound 1099], the EC50 – broadly, the concentration giving half of the maximal effect – was 0.7 nM.
Regarding `CCn1nnc2ccc(-c3ccn4nc(N[C@H]5CC[C@](C)(O)CC5)nc(OC)c34)cc21` [US20240002391, Compound 639], a half-maximal effect (EC50) was put at 1.3 nM.
`COc1nc(N[C@H]2C[C@](C)(O)C2)nn2ccc(-c3ccc4nccn4c3)c12` [US20240002391, Compound 44] gave an EC50 of 3.2 nM. This EC50 lies about 2.5-fold higher than the previous one.
`COc1nc(N[C@H]2C[C@@](C)(NC(C)=O)C2)nn2ccc(-c3ccc4nnn(CCF)c4c3)c12` [US20240002391, Compound 653] gave an EC50 of 1.3 nM.
In turn, `COc1nc(N[C@H]2CC[C@@](C)(O)CC2)nn2ccc(-c3ccc4nnn(CCF)c4c3)c12` [US20240002391, Compound 658] gave an EC50 of 4.5 nM.
The compound `COc1nc(N[C@H]2C[C@@](C)(O)C2)nn2ccc(-c3ccc4nccn4c3)c12` [US20240002391, Compound 43] yielded an EC50 of 1.3 nM.
In turn, `COc1nc(N[C@H]2C[C@@](C)(NC(=O)C3(C#N)CC3)C2)nn2ccc(-c3ccc4nnn(C)c4c3)c12` [US20240002391, Compound 625] had an EC50 of 0.9 nM. The EC50 values of the last two compounds are within 1.5-fold of each other.
`Cn1nnc2ccc(-c3ccn4nc(N[C@H]5CC[C@](C)(O)CC5)nc(OC5COC5)c34)cc21` [US20240002391, Compound 631] came in with an EC50 of 24.5 nM.
`COc1nc(N[C@H]2CC[C@](C)(O)CC2)nn2cc(F)c(-c3ccc4nnn(C)c4c3)c12` [US20240002391, Compound 629] returned an EC50 of 2.4 nM.
Compound `COc1nc(N[C@H]2CC[C@](C)(O)CC2)nn2ccc(-c3ccc4nnn(CCF)c4c3)c12` [US20240002391, Compound 659] yielded an EC50 of 0.9 nM.
